Numbered stars: 1 amine (or outer) side, 2 acyl side, 3 side chain; on linkers, the order of the positions; unused ones are H or OH. Bridge positions count the residues as written; N and C are the ends. Square brackets hold non-standard residues; d marks the D form. Peptide text beside a SMILES is read from it. * marks the point of attachment. hPhe(3,5-F2-4-CF3) = N[C@@H](CCc1cc(F)c(C(F)(F)F)c(F)c1)C(=O)O; hPhe(3-Cl-4-CF3) = N[C@@H](CCc1ccc(C(F)(F)F)c(Cl)c1)C(=O)O; hPhe(3-F,4-CF3) = N[C@@H](CCc1ccc(C(F)(F)F)c(F)c1)C(=O)O; NMePhe(4-CF3) = CN[C@@H](Cc1ccc(C(F)(F)F)cc1)C(=O)O; hPhe(4-CF3) = N[C@@H](CCc1ccc(C(F)(F)F)cc1)C(=O)O; X103 = O=C([C@H](CCc1c(F)cccc1Cl)N[*:1])[*:2]; NMePhe(4-Cl) = CN[C@@H](Cc1ccc(Cl)cc1)C(=O)O; X99 = O=C([C@H](CCc1ccc(F)cc1F)N[*:1])[*:2]; NMedβ3hAla = C[C@H](CC(=O)[*:2])N(C)[*:1]; X119 = CN(C)C(=O)CCCN(CC(=O)[*:2])[*:1]; NMeGly(cPent) = CN[C@H](C(=O)O)C1CCCC1; Phe(4-Me) = Cc1ccc(C[C@H](N)C(=O)O)cc1; Pro(4,4-F2) = O=C(O)[C@@H]1CC(F)(F)CN1; X67 = O=C([C@@H]1CCC[C@H]1N[*:1])[*:2]; NMeCha = CN[C@@H](CC1CCCCC1)C(=O)O; NMeCba = CN[C@@H](CC1CCC1)C(=O)O; NMeChg = CN[C@H](C(=O)O)C1CCCCC1; NMeF = CN[C@@H](Cc1ccccc1)C(=O)O; NMeI = CC[C@H](C)[C@H](NC)C(=O)O; NMeD = CN[C@@H](CC(=O)O)C(=O)O; CH2CONHtBu = CC(C)(C)NC(=O)C*; Gly(N-CH2CH2OH) = O=C(O)CNCCO; NMeL = CN[C@@H](CC(C)C)C(=O)O; NMeV = CN[C@H](C(=O)O)C(C)C; d(β3hA) = C[C@@H](N)CC(=O)O; NMeS = CN[C@@H](CO)C(=O)O; NMeA = CN[C@@H](C)C(=O)O; NMeAib = CNC(C)(C)C(=O)O; Piperidide = C1CCN(*)CC1; dNMeA = CN[C@H](C)C(=O)O; Ac5c = NC1(C(=O)O)CCCC1; Aze = O=C(O)[C@@H]1CCN1; Cyclobutyl = C1CC(*)C1; Aib = CC(C)(N)C(=O)O; Sar = CNCC(=O)O; Propyl = CCC*
The compounds below were run against protein-protein interaction between Kras and SOS1 (biotin-tagged human Kras loaded with GDP, His-tagged human SOS1) (Homo sapiens (Human), UniProt P01116, G12D) (assay: Protein-protein interaction inhibition between Kras and SOS1 (KrasG12D-SOS PPI) using AlphaScreen). Conditions: not given.
Assay type: biochemical

SMILES | IC50 [nM]
CC[C@H](C)[C@@H]1NC(=O)[C@H](CC(C)C)N(C)C(=O)C[C@@H](C(=O)N2CCCCC2)N(C)C(=O)[C@H](C2CCCCC2)N(C)C(=O)C2(CCCC2)NC(=O)CN(CCCC(=O)N(C)C)C(=O)[C@H](CCc2ccc(C(F)(F)F)c(Cl)c2)NC(=O)CN(C)C(=O)[C@H](CC2CCCCC2)N(C)C(=O)CN(C)C(=O)CN(C)C1=O [Compound 2052, 4-[(11S,17S,26S,29S,33S,36S)-11-[2-[3-chloro-4-(trifluoromethyl)phenyl]ethyl]-36-cyclohexyl-17-(cyclohexylmethyl)-29-isobutyl-15,18,21,24,30,34,37-heptamethyl-26-[(1S)-1-methylpropyl]-7,10,13,16,19,22,25,28,31,35,38-undecaoxo-33-(piperidine-1-carbonyl)-6,9,12,15,18,21,24,27,30,34,37-undecazaspiro[4.33]octatriacontan-9-yl]-N,N-dimethyl-butanamide] ([NMeL]I[Sar][Sar][NMeCha][Sar][hPhe(3-Cl-4-CF3)][X119][Ac5c][NMeChg][NMeD]-Piperidide; lactam N-11) | 4.9

Same assay, conditions: AlphaScreen; biotin-tagged human Kras loaded with GDP, His-tagged human SOS1; read-out: KRAS G12D-SOS PPI IC50

SMILES | IC50 [nM]
CC[C@H](C)[C@@H]1NC(=O)[C@H](CC(C)C)N(C)C(=O)C[C@@H](C)NC(=O)[C@H](C2CCCC2)N(C)C(=O)C2(CCCC2)NC(=O)[C@@H]2CCCN2C(=O)[C@H](CCc2ccc(C(F)(F)F)c(Cl)c2)NC(=O)CN(C)C(=O)[C@H](Cc2ccc(C(F)(F)F)cc2)N(C)C(=O)[C@@H]2CCN2C(=O)[C@H](C)N(C)C1=O [Compound 1475] (cyclo([Ac5c][NMeGly(cPent)][d(β3hA)][NMeL]I[NMeA][Aze][NMePhe(4-CF3)][Sar][hPhe(3-Cl-4-CF3)]P)) | 2.7
CC[C@H](C)[C@@H]1NC(=O)[C@H](CC(C)C)N(C)C(=O)C[C@@H](C)N(C)C(=O)[C@H](C2CCCC2)N(C)C(=O)C2(CCCC2)NC(=O)[C@@H]2CC(F)(F)CN2C(=O)[C@H](CCc2cc(F)c(C(F)(F)F)c(F)c2)NC(=O)CN(C)C(=O)[C@H](Cc2ccc(C(F)(F)F)cc2)N(C)C(=O)[C@@H]2CCN2C(=O)[C@H](C)N(C)C1=O [Compound 900] (cyclo([Ac5c][NMeGly(cPent)][NMedβ3hAla][NMeL]I[NMeA][Aze][NMePhe(4-CF3)][Sar][hPhe(3,5-F2-4-CF3)][Pro(4,4-F2)])) | 0.84
CC[C@H](C)[C@@H]1NC(=O)[C@H](C)N(C)C(=O)C[C@@H](C)N(C)C(=O)[C@H](C(C)C)N(C)C(=O)C2(CCCC2)NC(=O)[C@@H]2CCCN2C(=O)[C@H](CCc2ccc(C(F)(F)F)c(Cl)c2)NC(=O)[C@@H](C)N(C)C(=O)[C@H](CC2CCCCC2)N(C)C(=O)[C@@H]2CCN2C(=O)[C@H](C)N(C)C1=O [Compound 1773] (cyclo([Ac5c][NMeV][NMedβ3hAla][NMeA]I[NMeA][Aze][NMeCha][dNMeA][hPhe(3-Cl-4-CF3)]P)) | 51
CC[C@H](C)[C@@H]1NC(=O)[C@H](C)N(C)C(=O)C[C@@H](C)NC(=O)[C@H](CC(C)C)N(C)C(=O)[C@H](Cc2ccccc2)N(C)C(=O)[C@H](CC(C)C)NC(=O)[C@H](CCc2ccc(F)cc2F)NC(=O)CN(C)C(=O)[C@H](Cc2ccc(Cl)cc2)N(C)C(=O)CN(C)C(=O)CN(C)C1=O [Compound 2089] (cyclo(I[Sar][Sar][NMePhe(4-Cl)][Sar][X99]L[NMeF][NMeL][d(β3hA)][NMeA])) | 300
CC[C@H](C)[C@@H]1NC(=O)[C@H](C)NC(=O)C[C@@H](C)N(C)C(=O)[C@H](CC(C)C)N(C)C(=O)[C@H](Cc2ccccc2)N(C)C(=O)[C@H](CC(C)C)NC(=O)[C@H](CCc2ccc(C(F)(F)F)cc2)NC(=O)CN(C)C(=O)[C@H](Cc2ccc(Cl)cc2)N(C)C(=O)CN(C)C(=O)CN(C)C1=O [Compound 406] (cyclo(AI[Sar][Sar][NMePhe(4-Cl)][Sar][hPhe(4-CF3)]L[NMeF][NMeL][NMedβ3hAla])) | 250
CC[C@H](C)[C@@H]1NC(=O)[C@H](CC(C)C)N(C)C(=O)C[C@@H](C(=O)N2CCCCC2)N(C)C(=O)[C@H]([C@@H](C)CC)N(C)C(=O)C2(CCCC2)NC(=O)[C@@H]2CCCN2C(=O)[C@H](CCc2ccc(C(F)(F)F)c(Cl)c2)NC(=O)CN(C)C(=O)[C@H](COC2CCC2)N(C)C(=O)[C@@H]2CCN2C(=O)[C@H](C)N(C)C1=O [Compound 885] ([NMeL]I[NMeA][Aze][NMeS](Cyclobutyl)[Sar][hPhe(3-Cl-4-CF3)]P[Ac5c][NMeI][NMeD]-Piperidide; lactam N-11) | 1.9
CC[C@H](C)[C@@H]1NC(=O)[C@H](CC(C)C)N(C)C(=O)C[C@@H](C)NC(=O)[C@H](C(C)C)N(C)C(=O)C2(CCCC2)NC(=O)[C@@H]2CCCN2C(=O)[C@H](CCc2ccc(C(F)(F)F)c(Cl)c2)NC(=O)CN(C)C(=O)[C@H](CC2CCCCC2)N(C)C(=O)[C@@H]2CCN2C(=O)[C@H](COCC(=O)NC(C)(C)C)N(C)C1=O [Compound 70] (cyclo([Ac5c][NMeV][d(β3hA)][NMeL]I[NMeS](CH2CONHtBu)[Aze][NMeCha][Sar][hPhe(3-Cl-4-CF3)]P)) | 160
CC[C@H](C)[C@@H]1NC(=O)[C@H](C)N(C)C(=O)C[C@@H](C)NC(=O)[C@H](CC(C)C)N(C)C(=O)[C@H](Cc2ccccc2)N(C)C(=O)[C@H](CC(C)C)NC(=O)[C@H](CCc2c(F)cccc2Cl)NC(=O)CN(C)C(=O)[C@H](Cc2ccc(Cl)cc2)N(C)C(=O)CN(C)C(=O)CN(C)C1=O [Compound 2092] (cyclo(I[Sar][Sar][NMePhe(4-Cl)][Sar][X103]L[NMeF][NMeL][d(β3hA)][NMeA])) | 350
CC[C@H](C)[C@@H]1NC(=O)[C@H](CC(C)C)N(C)C(=O)C[C@@H](C(=O)N(C)C)N(C)C(=O)[C@H]([C@@H](C)CC)N(C)C(=O)[C@H](C(C)C)NC(=O)[C@@H]2CCCN2C(=O)[C@H](CCc2ccc(C(F)(F)F)c(Cl)c2)NC(=O)CN(C)C(=O)[C@H](Cc2ccc(C)cc2)NC(=O)[C@@H]2CCN2C(=O)[C@H](C)N(C)C1=O [Compound 660] ([NMeL]I[NMeA][Aze][Phe(4-Me)][Sar][hPhe(3-Cl-4-CF3)]PV[NMeI][NMeD]-NMe2; lactam N-11) | 210
CC[C@H](C)[C@@H]1NC(=O)[C@H](C(C)C)N(C)C(=O)[C@@H]2CCC[C@H]2NC(=O)[C@H](CC(C)C)N(C)C(=O)C2(CCCC2)NC(=O)[C@H](CC(C)C)N(C)C(=O)[C@H](CCc2ccc(C(F)(F)F)cc2)NC(=O)CN(C)C(=O)[C@H](Cc2ccc(Cl)cc2)N(C)C(=O)CN(C)C(=O)CN(C)C1=O [Compound 996] (cyclo([Ac5c][NMeL][X67][NMeV]I[Sar][Sar][NMePhe(4-Cl)][Sar][hPhe(4-CF3)][NMeL])) | 90
CC[C@H](C)[C@@H]1NC(=O)[C@H](C)N(C)C(=O)C[C@@H](C)N(C)C(=O)[C@H](CC2CCC2)N(C)C(=O)C(C)(C)N(C)C(=O)[C@@H]2CCCN2C(=O)[C@H](CCc2ccc(C(F)(F)F)c(Cl)c2)NC(=O)CN(C)C(=O)[C@H](CC2CCCCC2)N(C)C(=O)[C@@H]2CCN2C(=O)[C@H](C)N(C)C1=O [Compound 2152] (cyclo([Aze][NMeCha][Sar][hPhe(3-Cl-4-CF3)]P[NMeAib][NMeCba][NMedβ3hAla][NMeA]I[NMeA])) | 71
CC[C@H](C)[C@@H]1NC(=O)[C@H](C)N(C)C(=O)C[C@@H](C)NC(=O)[C@H](C(C)C)N(C)C(=O)C2(CCCC2)NC(=O)[C@@H]2CCCN2C(=O)[C@H](CCc2ccc(C(F)(F)F)c(Cl)c2)NC(=O)[C@@H](C)N(C)C(=O)[C@H](Cc2ccccc2)N(C)C(=O)[C@@H]2CCCN2C(=O)CN(C)C1=O [Compound 1783] (cyclo([Ac5c][NMeV][d(β3hA)][NMeA]I[Sar]P[NMeF][dNMeA][hPhe(3-Cl-4-CF3)]P)) | 52
CC[C@H](C)[C@@H]1NC(=O)[C@H](CC(C)C)N(C)C(=O)C[C@@H](C(=O)N2CCCCC2)N(C)C(=O)[C@H](C2CCCCC2)N(C)C(=O)C2(CCCC2)NC(=O)CN(CCO)C(=O)[C@H](CCc2ccc(C(F)(F)F)c(Cl)c2)NC(=O)CN(C)C(=O)[C@H](CC2CCCCC2)N(C)C(=O)CN(C)C(=O)CN(C)C1=O [Compound 2037, (11S,17S,26S,29S,33S,36S)-11-[2-[3-chloro-4-(trifluoromethyl)phenyl]ethyl]-36-cyclohexyl-17-(cyclohexylmethyl)-9-(2-hydroxyethyl)-29-isobutyl-15,18,21,24,30,34,37-heptamethyl-26-[(1S)-1-methylpropyl]-33-(piperidine-1-carbonyl)-6,9,12,15,18,21,24,27,30,34,37-undecazaspiro[4.33]octatriacontane-7,10,13,16,19,22,25,28,31,35,38-undecone] ([NMeL]I[Sar][Sar][NMeCha][Sar][hPhe(3-Cl-4-CF3)][Gly(N-CH2CH2OH)][Ac5c][NMeChg][NMeD]-Piperidide; lactam N-11) | 0.58
CC[C@H](C)[C@@H]1NC(=O)[C@H](CC2CCCCC2)N(C)C(=O)C[C@@H](C)NC(=O)[C@H](CC(C)C)N(C)C(=O)C2(CCCC2)NC(=O)[C@H](CC(C)C)N(C)C(=O)[C@H](CCc2ccc(C(F)(F)F)cc2)NC(=O)CN(C)C(=O)[C@H](Cc2ccc(Cl)cc2)N(C)C(=O)CN(C)C(=O)CN(C)C1=O [Compound 583] (cyclo([Ac5c][NMeL][d(β3hA)][NMeCha]I[Sar][Sar][NMePhe(4-Cl)][Sar][hPhe(4-CF3)][NMeL])) | 370
CCCOC[C@H]1C(=O)N(C)CC(=O)N[C@@H](CCc2ccc(C(F)(F)F)c(F)c2)C(=O)N2CCC[C@H]2C(=O)NC2(CCCC2)C(=O)N(C)[C@@H]([C@@H](C)CC)C(=O)N(C)[C@H](C(=O)N2CCCCC2)CC(=O)N(C)[C@@H](CC(C)C)C(=O)N[C@@H]([C@@H](C)CC)C(=O)N(C)[C@@H](C)C(=O)N2CC[C@H]2C(=O)N1C [Compound 236] ([NMeL]I[NMeA][Aze][NMeS](Propyl)[Sar][hPhe(3-F,4-CF3)]P[Ac5c][NMeI][NMeD]-Piperidide; lactam N-11) | 8.5
CC[C@H](C)[C@@H]1NC(=O)[C@H](C)N(C)C(=O)C[C@@H](C)N(C)C(=O)[C@H](CC(C)C)NC(=O)C(C)(C)NC(=O)[C@H](CC(C)C)NC(=O)[C@H](CCc2ccc(C(F)(F)F)cc2)NC(=O)CN(C)C(=O)[C@H](Cc2ccc(Cl)cc2)N(C)C(=O)CN(C)C(=O)CN(C)C1=O [Compound 170] (cyclo([Aib]L[NMedβ3hAla][NMeA]I[Sar][Sar][NMePhe(4-Cl)][Sar][hPhe(4-CF3)]L)) | 350

— US20240148821A1, “PHARMACEUTICAL USE OF CYCLIC PEPTIDE COMPOUND” (CHUGAI SEIYAKU KABUSHIKI KAISHA, priority 2021, published 2024)
